Several values for one entry are separate records, joined by “and”; a condition that tells them apart may be missing. Equal values may be shown once.
Key:
[1] = CSF concentration of endogenous d0OT by LC-MS/MS; format: in vivo, rhesus macaques (Macaca mulatta)
Description: (§1) The six monkeys were dosed once a week, for 4 consecutive weeks, with each DOSE–ROUTE condition of d5OT (40 IU IN, 40 IU IV, 80 IU IN, or 80 IU IV). Each DOSE–ROUTE condition was assigned using a Latin square randomization (Table 4). Sessions were separated by at least 6 days. During each session, CSF (750 µl) and blood (5 ml) samples were drawn immediately prior to (T = 0) and following (T = 60 and 120 min) each administration of d5OT.
(§2) Monkeys were divided into three groups, each with two monkeys; each group received the following in a terminal study at the 5th week: Group 1 (Monkeys ID# 1 and ID# 5) received 40 IU of d5OT IN, Group 2 received 80 IU of d5OT IN (Monkeys ID# 2 and ID# 4) and Group 3 received 80 IU of d5OT IV (Monkeys ID# 3 and ID# 6). Animals were perfused on average, 140 ± 7 (mean ± SD) min after d5OT administration (range = 135–149 min) (Table 4). Plasma and CSF were drawn just before administration of d5OT, at the midpoint between d5OT administration and perfusion (~60 min post-d5OT administration), and just before perfusion.
Chemicals: An unlabeled standard for d0OT and deuterated standard for d5OT were purchased from Sigma-Aldrich (St. Louis, MO); d10OT was purchased for use as an internal standard through a custom order from Cayman Chemical (Ann Arbor, MI). All other reagents were commercially available, and we purchased LC or MS grade chemicals when available. Plasma and CSF sample preparation for LC–MS/MS analysis. CSF and plasma samples were collected as described above. Using 15 ml polystyrene tubes, 1.0 ml of each standard, quality control (QC), or plasma sample was combined with 30 µl of internal standard mixture (34 ng/ml d10OT in 50:50 acetonitrile (ACN):water, v–v) and incubated for 20 min on ice. Volumes used for CSF samples ranged from 0.4 to 1.0 ml, depending on sample availability. CSF samples <1.0 ml were brought to a final volume of 1.0 ml using charcoal-stripped serum, prior to addition of internal standard. To each tube, 2 ml of ice-cold ACN was added, vortexed thoroughly, and centrifuged at 2500 × g for 10 min at 4 °C. The supernatants were transferred to new 13 mm × 100 mm polypropylene tubes and evaporated in a 37 °C water bath, under forced air, to a volume of <1 ml. […]
(§3) Solid-phase extraction (SPE) columns (Strata-X-Drug B, 60 mg/6 ml, Phenomenex, Torrance, CA) were conditioned prior to use by adding 2 ml of methanol, followed by 2 ml of water, and 2 ml of 0.2 M ammonium acetate (pH 3.0) in water; each was allowed to flow through by gravity before the next was added. […] After a 15 min incubation at 4 °C, plates were filtered into microtiter plates (Shimadzu, Kyoto, Japan) using a positive pressure manifold (8 min at 5 psi, followed by 15 s at 15 psi; Biotage, Uppsala, Sweden), and analyzed. […]

[2] = nonhuman primate, cited from earlier work
Description: […] For IV administration, 1 ml was administered via a peripheral IV catheter. For IN administration, an IN Mucosal Atomization Device [MAD, Teleflex Medical, Research Triangle Park, NC] was used. This same device was used in our previous nonhuman primate study. […] Of not ...

[3] = CSF concentration of d5OT by LC-MS/MS after IN or IV d5OT; format: in vivo, rhesus macaques (Macaca mulatta)
Description: as §1, §2
Chemicals: An unlabeled standard for d0OT and deuterated standard for d5OT were purchased from Sigma-Aldrich (St. Louis, MO); d10OT was purchased for use as an internal standard through a custom order from Cayman Chemical (Ann Arbor, MI). All other reagents were commercially available, and we purchased LC or MS grade chemicals when available. Plasma and CSF sample preparation for LC–MS/MS analysis. CSF and plasma samples were collected as described above. Using 15 ml polystyrene tubes, 1.0 ml of each standard, quality control (QC), or plasma sample was combined with 30 µl of internal standard mixture (34 ng/ml d10OT in 50:50 acetonitrile (ACN):water, v–v) and incubated for 20 min on ice. Volumes used for CSF samples ranged from 0.4 to 1.0 ml, depending on sample availability. CSF samples <1.0 ml were brought to a final volume of 1.0 ml using charcoal-stripped serum, prior to addition of internal standard. To each tube, 2 ml of ice-cold ACN was added, vortexed thoroughly, and centrifuged at 2500 × g for 10 min at 4 °C. The supernatants were transferred to new 13 mm × 100 mm polypropylene tubes and evaporated in a 37 °C water bath, under forced air, to a volume of <1 ml. We then added 5.5 ml of 0.2 M ammonium acetate (pH 3.0) in water, capped the tubes and mixed by inversion, before centrifugation at 2500 × g for 10 min at 4 °C.
as §3, with “added. The supernatants from the previous step were then added to SPE columns (one supernatant per column) by pouring. Columns were washed with 2 ml ammonium acetate (pH 3.0) in water, followed by 2 ml water and 2 ml ACN, and dried for 5 min in a vacuum manifold (5 in Hg; Millipore, Burlington, MA). OT was eluted with 2 × 1 ml 0.2% ammonium hydroxide in methanol into 12 mm × 75 mm polypropylene tubes and evaporated to dryness under forced air in a 37 °C water bath.” for “added.”

Structure (SMILES) | CSF concentrations of d0OT at necropsy ([1]; 40 IU IN condition, monkey #1) | CSF concentrations of d0OT at necropsy ([1]; 40 IU IN condition, one monkey) [pg/mL] | CSF concentrations of d0OT at necropsy ([1]; 80 IU IN condition, two monkeys, listed as d0OT) | CSF concentrations of d0OT at necropsy ([1]; 80 IU IV condition, two monkeys, listed as d0OT) | Concentration of CSF OT ([2]; IN administration of unlabeled OT with a different IN device) | CSF OT concentrations ([2]; OT 48 IU, MAD spray and nebulizer) | d5OT in CSF ([3]; 120 min after IV administration (40 and 80 IU), LC-MS/MS, MDL 38 pg/ml) | d5OT in CSF ([3]; after IN administration of either dose (40 or 80 IU), any timepoint, LC-MS/MS, MDL 38 pg/ml) | d5OT in CSF ([3]; just prior to necropsy, after 80 IU IV, single monkey, LOQ 100 pg/ml) | d5OT in CSF ([3]; timepoint 60 min after 40 IU IV, N = 6, LC-MS/MS, LOQ 100 pg/ml, MDL 38 pg/ml) | d5OT in CSF ([3]; timepoint 60 min after 80 IU IV, N = 6, LC-MS/MS, LOQ 100 pg/ml, MDL 38 pg/ml)
CC[C@H](C)[C@@H]1NC(=O)[C@H](Cc2ccc(O)cc2)NC(=O)[C@@H](N)CSSC[C@@H](C(=O)N2CCC[C@H]2C(=O)N[C@@H](CC(C)C)C(=O)NCC(N)=O)NC(=O)[C@H](CC(N)=O)NC(=O)[C@H](CCC(N)=O)NC1=O [OT, oxytocin] | not quantified | 12 | 16 pg/mL and 10 pg/mL | 16 pg/mL and 14 pg/mL | no increased concentration | significant elevations | – | – | – | – | –
CC[C@H](C)[C@@H]1NC(=O)[C@H](Cc2ccc(O)cc2)NC(=O)[C@@H](N)CSSC[C@@H](C(=O)N2CCC[C@H]2C(=O)N[C@@H](CC(C)C)C(=O)NCC(N)=O)NC(=O)[C@H](CC(N)=O)NC(=O)[C@H](CCC(N)=O)NC1=O [d5OT] | – | – | – | – | – | – | no d5OT detected | no d5OT detected | below the limit of quantification | detected | detected
